{"source": "patent US20030165854A1", "about": "“Marker genes responding to treatment with toxins” (priority 2000, published 2003)", "key": {"[1]": {"system": "rat liver cDNAs SEQ ID NOs: 1-61", "format": "in vivo, Han/Wistar rat", "conditions": "Strain HW"}, "[2]": {"system": "rat liver cDNAs SEQ ID NOs: 1-61", "format": "in vivo, Han/Wistar rat", "conditions": "Strain HW, Sex F"}, "[3]": {"system": "rat liver cDNAs SEQ ID NOs: 62-202", "test": "Abundance of cDNA clones in toxin-treated rat liver cDNA libraries (transcript imaging), Sprague-Dawley", "format": "in vivo", "conditions": "Strain SD", "experimental": "Columns 1 and 2 show the SEQ ID NO and Clone ID of the rat cDNA clone, respectively.\nAbundance of a clone was determined by counting the number of clones present in a master cluster.\nAbundance of a particular cDNA in the library profile was determined by summing the total number of copies of the clones present in the master cluster in that library."}}, "data": [{"smiles": "CC(C)OC(=O)C(C)(C)Oc1ccc(C(=O)c2ccc(Cl)cc2)cc1", "note": "[Feno, fenofibrate]", "values": [{"measurement": "Maximum Abundance, SEQ ID NO 20, Clone ID 700063569", "setting": "[1]", "value": 3}, {"measurement": "Maximum Abundance, SEQ ID NO 30, Clone ID 700140375", "setting": "[1]", "value": 3}, {"measurement": "Maximum Abundance, SEQ ID NO 31, Clone ID 700140450", "setting": "[1]", "value": 8}, {"measurement": "Maximum Abundance, SEQ ID NO 35, Clone ID 700179766", "setting": "[1]", "value": 3}, {"measurement": "Maximum Abundance, SEQ ID NO 37, Clone ID 700182016", "setting": "[1]", "value": 3}, {"measurement": "Maximum Abundance, SEQ ID NO 38, Clone ID 700185871", "setting": "[1]", "value": 3}, {"measurement": "Maximum Abundance, SEQ ID NO 39, Clone ID 700198357", "setting": "[1]", "value": 3}, {"measurement": "Maximum Abundance, SEQ ID NO 40, Clone ID 700230123", "setting": "[1]", "value": 4}, {"measurement": "Maximum Abundance, SEQ ID NO 42, Clone ID 700250877", "setting": "[1]", "value": 3}, {"measurement": "Maximum Abundance, SEQ ID NO 45, Clone ID 700305380", "setting": "[1]", "value": 4}, {"measurement": "Maximum Abundance, SEQ ID NO 49, Clone ID 700478138", "setting": "[1]", "value": 5}, {"measurement": "Maximum Abundance, SEQ ID NO 53, Clone ID 700818852", "setting": "[1]", "value": 5}, {"measurement": "Maximum Abundance, SEQ ID NO 54, Clone ID 700937735", "setting": "[1]", "value": 8}, {"measurement": "Maximum Abundance, SEQ ID NO 55, Clone ID 701197728", "setting": "[1]", "value": 3}, {"measurement": "Maximum Abundance, SEQ ID NO 60, Clone ID 701597659", "setting": "[1]", "value": 3}, {"measurement": "Maximum Abundance, SEQ ID NO 13, Clone ID 700135749", "setting": "[2]", "value": 4}]}, {"smiles": "NN", "note": "[Hydra, hydrazine]", "values": [{"measurement": "Maximum Abundance, SEQ ID NO 17, Clone ID 700059927", "setting": "[1]", "value": 4}, {"measurement": "Maximum Abundance, SEQ ID NO 23, Clone ID 700067778", "setting": "[1]", "value": 3}, {"measurement": "Maximum Abundance, SEQ ID NO 24, Clone ID 700123633", "setting": "[1]", "value": 3}, {"measurement": "Maximum Abundance, SEQ ID NO 28, Clone ID 700135850", "setting": "[1]", "value": 3}, {"measurement": "Maximum Abundance, SEQ ID NO 32, Clone ID 700144406", "setting": "[1]", "value": 4}, {"measurement": "Maximum Abundance, SEQ ID NO 33, Clone ID 700175249", "setting": "[1]", "value": 7}, {"measurement": "Maximum Abundance, SEQ ID NO 61, Clone ID 701637512", "setting": "[1]", "value": 4}, {"measurement": "Maximum Abundance, SEQ ID NO 12, Clone ID 700062506", "setting": "[2]", "value": 3}, {"measurement": "Maximum Abundance, SEQ ID NO 13, Clone ID 700135749", "setting": "[2]", "value": 4}]}, {"smiles": "c1ccc2c(c1)cc1ccc3cccc4ccc2c1c34", "note": "[benzo(a)pyrene]", "values": [{"measurement": "Maximum Abundance, SEQ ID NO 6, Clone ID 700062791", "setting": "[1]", "value": 4}, {"measurement": "Maximum Abundance, SEQ ID NO 7, Clone ID 700250279", "setting": "[1]", "value": 6}, {"measurement": "Maximum Abundance, SEQ ID NO 8, Clone ID 700312413", "setting": "[1]", "value": 4}, {"measurement": "Maximum Abundance, SEQ ID NO 9, Clone ID 700308908", "setting": "[1]", "value": 6}, {"measurement": "Maximum Abundance, SEQ ID NO 76, Clone ID 700059750", "setting": "[3]", "value": 3}, {"measurement": "Maximum Abundance, SEQ ID NO 77, Clone ID 700123903", "setting": "[3]", "value": 3}, {"measurement": "Maximum Abundance, SEQ ID NO 78, Clone ID 700135554", "setting": "[3]", "value": 3}, {"measurement": "Maximum Abundance, SEQ ID NO 79, Clone ID 700175783", "setting": "[3]", "value": 4}, {"measurement": "Maximum Abundance, SEQ ID NO 80, Clone ID 700176825", "setting": "[3]", "value": 4}, {"measurement": "Maximum Abundance, SEQ ID NO 81, Clone ID 700177142", "setting": "[3]", "value": 4}, {"measurement": "Maximum Abundance, SEQ ID NO 82, Clone ID 700185570", "setting": "[3]", "value": 3}, {"measurement": "Maximum Abundance, SEQ ID NO 83, Clone ID 700244879", "setting": "[3]", "value": 3}, {"measurement": "Maximum Abundance, SEQ ID NO 84, Clone ID 700246085", "setting": "[3]", "value": 4}, {"measurement": "Maximum Abundance, SEQ ID NO 85, Clone ID 700302152", "setting": "[3]", "value": 10}, {"measurement": "Maximum Abundance, SEQ ID NO 86, Clone ID 700305538", "setting": "[3]", "value": 13}, {"measurement": "Maximum Abundance, SEQ ID NO 87, Clone ID 700307329", "setting": "[3]", "value": 3}, {"measurement": "Maximum Abundance, SEQ ID NO 88, Clone ID 700323326", "setting": "[3]", "value": 4}, {"measurement": "Maximum Abundance, SEQ ID NO 89, Clone ID 700328990", "setting": "[3]", "value": 4}, {"measurement": "Maximum Abundance, SEQ ID NO 90, Clone ID 700330391", "setting": "[3]", "value": 3}, {"measurement": "Maximum Abundance, SEQ ID NO 91, Clone ID 700363445", "setting": "[3]", "value": 6}, {"measurement": "Maximum Abundance, SEQ ID NO 92, Clone ID 700480903", "setting": "[3]", "value": 3}, {"measurement": "Maximum Abundance, SEQ ID NO 93, Clone ID 700482908", "setting": "[3]", "value": 3}, {"measurement": "Maximum Abundance, SEQ ID NO 94, Clone ID 700935261", "setting": "[3]", "value": 3}, {"measurement": "Maximum Abundance, SEQ ID NO 95, Clone ID 700939101", "setting": "[3]", "value": 3}, {"measurement": "Maximum Abundance, SEQ ID NO 96, Clone ID 700950626", "setting": "[3]", "value": 3}, {"measurement": "Maximum Abundance, SEQ ID NO 97, Clone ID 701316308", "setting": "[3]", "value": 3}, {"measurement": "Maximum Abundance, SEQ ID NO 98, Clone ID 701316810", "setting": "[3]", "value": 3}, {"measurement": "Maximum Abundance, SEQ ID NO 99, Clone ID 701327688", "setting": "[3]", "value": 3}, {"measurement": "Maximum Abundance, SEQ ID NO 100, Clone ID 701337820", "setting": "[3]", "value": 3}, {"measurement": "Maximum Abundance, SEQ ID NO 101, Clone ID 701432276", "setting": "[3]", "value": 4}, {"measurement": "Maximum Abundance, SEQ ID NO 102, Clone ID 701432317", "setting": "[3]", "value": 3}, {"measurement": "Maximum Abundance, SEQ ID NO 103, Clone ID 701472012", "setting": "[3]", "value": 3}, {"measurement": "Maximum Abundance, SEQ ID NO 104, Clone ID 701472036", "setting": "[3]", "value": 3}, {"measurement": "Maximum Abundance, SEQ ID NO 105, Clone ID 701517108", "setting": "[3]", "value": 3}, {"measurement": "Maximum Abundance, SEQ ID NO 106, Clone ID 701710808", "setting": "[3]", "value": 4}, {"measurement": "Maximum Abundance, SEQ ID NO 107, Clone ID 701241446", "setting": "[3]", "value": 3}, {"measurement": "Maximum Abundance, SEQ ID NO 108, Clone ID 701711993", "setting": "[3]", "value": 5}, {"measurement": "Maximum Abundance, SEQ ID NO 110, Clone ID 700192259", "setting": "[3]", "value": 5}, {"measurement": "Maximum Abundance, SEQ ID NO 111, Clone ID 700269330", "setting": "[3]", "value": 4}, {"measurement": "Maximum Abundance, SEQ ID NO 112, Clone ID 701317696", "setting": "[3]", "value": 5}, {"measurement": "Maximum Abundance, SEQ ID NO 186, Clone ID 700068662", "setting": "[3]", "value": 6}, {"measurement": "Maximum Abundance, SEQ ID NO 187, Clone ID 700933309", "setting": "[3]", "value": 5}, {"measurement": "Maximum Abundance, SEQ ID NO 201, Clone ID 700062503", "setting": "[3]", "value": 3}, {"measurement": "Maximum Abundance, SEQ ID NO 202, Clone ID 700490891", "setting": "[3]", "value": 4}, {"measurement": "Maximum Abundance, SEQ ID NO 74, Clone ID 700137978", "setting": "[3]; Sex F", "value": 7}, {"measurement": "Maximum Abundance, SEQ ID NO 75, Clone ID 701709967", "setting": "[3]; Sex F", "value": 4}, {"measurement": "Maximum Abundance, SEQ ID NO 188, Clone ID 700024288", "setting": "[3]; Sex F", "value": 2}, {"measurement": "Maximum Abundance, SEQ ID NO 190, Clone ID 700066933", "setting": "[3]; Sex F", "value": 2}, {"measurement": "Maximum Abundance, SEQ ID NO 191, Clone ID 700146747", "setting": "[3]; Sex F", "value": 3}, {"measurement": "Maximum Abundance, SEQ ID NO 193, Clone ID 700858043", "setting": "[3]; Sex F", "value": 1}, {"measurement": "Maximum Abundance, SEQ ID NO 109, Clone ID 700250903", "setting": "[3]; Sex M", "value": 11}, {"measurement": "Maximum Abundance, SEQ ID NO 196, Clone ID 700062747", "setting": "[3]; Sex M", "value": 2}, {"measurement": "Maximum Abundance, SEQ ID NO 197, Clone ID 700124248", "setting": "[3]; Sex M", "value": 3}, {"measurement": "Maximum Abundance, SEQ ID NO 200, Clone ID 700282789", "setting": "[3]; Sex M", "value": 3}]}]}
